Measurements: PMC4060991, “The Human Orphan Nuclear Receptor Tailless (TLX, NR2E1) Is Druggable” (PLoS ONE, 2014)
Like-named read-outs stand apart in the source and are kept apart here.

What was measured:
ERβ LBD = ERβ LBD (Homo sapiens, UniProt Q92731); test: DSF on purified ERβ LBD; details: compound 500 µM; unliganded Tm ∼51°C
Description: (§2) Protein stability was assessed with DSF in absence or presence of test compounds in a LightCycler 480 II qRT-PCR Detection System (Roche) in 384-well format. Sypro-Orange dye (Life Technologies) was used to monitor fluorescence, with filters for fluorescence excitation at 465 nm and for fluorescence emission at 610 nm. […] Tested sample mixtures were heated from 25°C to 96°C at a rate of 0.05°C/sec with 11 acquisitions per °C. Each compound was tested in duplicates. The melting temperature (Tm) for each sample was deduced by the ThermoQ Analytical software (HMRI) from the first derivative of the corresponding denaturation curve generated by the LightCycler 480 software. The same protocol was applied to investigate the stability of purified ERβ and LXRβ LBDs in presence or absence of the compounds. The optimal final concentrations for these experiments were 0.02 mg/mL for ERβ LBD and 0.20 mg/mL for LXRβ LBD. All DSF-based analyses were performed using freshly purified protein.

TLX LBD [1] = biological target: T1, TLX LBD (Homo sapiens, UniProt Q9Y466); test: GAL4-TLX LBD luciferase transactivation assay in HeLa cells; type: cell-based; design: expressed in transfected cells; host or cells: HeLa
T1 sequence (Q9Y466 187-385): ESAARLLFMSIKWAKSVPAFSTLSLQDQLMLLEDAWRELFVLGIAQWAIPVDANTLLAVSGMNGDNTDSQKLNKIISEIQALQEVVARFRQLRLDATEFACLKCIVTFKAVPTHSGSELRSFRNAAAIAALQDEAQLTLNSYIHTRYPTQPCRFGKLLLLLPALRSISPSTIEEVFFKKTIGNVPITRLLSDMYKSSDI
Description: The luciferase reporter pGL4.35 [luc2P/9XGAL4UAS/Hygro] vector was obtained from Promega. pBIND-TLX LBD was fully sequenced (ACGT, Inc.).
(§1) HeLa cells were maintained in D-MEM High Glucose (Hyclone) supplemented with 10% charcoal:dextran stripped FBS (Hyclone) and 1x Pen/Strep antibiotics (Life Technologies). Transient transfections were carried out in batches on 100,000 cells seeded into 12-well tissue culture plates. The co-transfections were performed using the TransFectin Lipid reagent (Bio-Rad) with approximately 10 ng/well of Gal4 DBD (gift from Phuong Nguyen, Fletterick Laboratory, UCSF) or GAL4-TLX LBD, 10 ng/well of renilla luciferase gene (Promega) for internal control and 200 ng/well of pGL4.35 reporter gene (containing an upstream Gal4 Upstream Activator Sequence and the luciferase gene, Promega). Approximately, 3 h after transfections, cells were treated with compounds of interest at different concentrations, or solvent (DMSO, 0.1%) in DMEM containing no fetal bovine serum or antibiotics. After a 16-h incubation, luciferase activities were assessed using Dual Luciferase assay reagent (Promega). Luciferase activities were calculated by normalizing firefly luciferase to renilla luciferase signal. […] Cells transfected with Gal4 DBD vector served as a control for TLX independent effects.
All measurements were performed in triplicates and repeated in three independent experiments. Prism 6 was used to calculate EC50.

human RXRα LBD = biological target: T2, human RXRα LBD (Homo sapiens, UniProt P19793); test: GAL4 DBD-RXRα LBD luciferase transactivation assay in HeLa cells; type: cell-based; details: 10 µM, 24 h, alone or in competition with 9-cis retinoic acid 100 nM
T2 construct: expressed in transfected cells; host or cells: HeLa
T2 sequence (P19793 225-462): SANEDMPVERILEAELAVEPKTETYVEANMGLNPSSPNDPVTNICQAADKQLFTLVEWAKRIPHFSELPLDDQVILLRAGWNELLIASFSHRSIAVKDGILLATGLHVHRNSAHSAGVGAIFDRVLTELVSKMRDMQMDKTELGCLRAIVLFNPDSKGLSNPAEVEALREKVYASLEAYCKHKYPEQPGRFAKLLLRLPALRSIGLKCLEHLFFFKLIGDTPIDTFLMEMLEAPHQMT
Description: We cloned human RXRα LBD (residues 225–462) in the vector pBIND as described above. Transient co-transfections of HeLa cells with vectors encoding either Gal4DBD or Gal4 DBD-RXRα LBD fusion (both at 10 ng/well), pGL4.35 reporter gene (200 ng/well) and renilla luciferase gene (10 ng/well, internal control) were performed in batches of 10^5 cells seeded into 12-well tissue culture plates. The transfections were done using TransFectin Lipid Reagent (Biorad). Three hours after the transfections, cells were treated with either DMSO (0.1%, control) or compounds ccrp1, ccrp2 or ccrp3 at 10 µM, in the absence or the presence of 9-cis retinoic acid (RA, 100 nM). Following 24 h incubation, luciferase activities in each well were assessed as described above. Cells transfected with Gal4 DBD vector served as a control for RXR independent effects.

GAL4 DBD vector = test: Luciferase assay in HeLa cells transfected with empty GAL4 DBD vector (absence of TLX); type: cell-based, human; details: different concentrations, 16 h
Description: as §1

human LXRβ LBD = biological target: T3, human LXRβ LBD (Homo sapiens, UniProt P55055); test: DSF on purified LXRβ LBD; type: binding; details: compound 500 µM; unliganded Tm ∼39°C
T3 construct: human LXRβ LBD (Liver X Receptor beta, a.a. 226–460) was expressed; His6 followed by TEV protease cleavage site (N); made in house; host or cells: E. coli BL21 (DE3) star
T3 sequence (P55055 226-460): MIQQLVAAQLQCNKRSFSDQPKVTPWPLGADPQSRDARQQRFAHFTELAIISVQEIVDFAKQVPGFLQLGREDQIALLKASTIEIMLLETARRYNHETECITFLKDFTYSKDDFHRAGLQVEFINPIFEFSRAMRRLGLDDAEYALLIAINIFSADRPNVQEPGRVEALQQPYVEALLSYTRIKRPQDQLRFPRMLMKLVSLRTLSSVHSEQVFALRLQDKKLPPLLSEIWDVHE
Description: as §2

TLX LBD [2] = biological target: T1, TLX LBD; test: Differential scanning fluorimetry (DSF) on purified TLX LBD;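 further: thermal unfolding followed by Sypro-Orange fluorescence (excitation 465 nm, emission 610 nm) in 384-well plates, Tm taken from the first derivative of the denaturation curve, duplicate samples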; type: binding; design: cDNA fragments encoding human TLX LBD (a.a. 187–385) were cloned; His6 followed by TEV protease cleavage site (N); made in house; host or cells: E. coli BL21 (DE3) star; details: compound 500 µM; reference Tm 58.8±0.3°C with 5% DMSO
Description: Protein stability was assessed with DSF in absence or presence of test compounds in a LightCycler 480 II qRT-PCR Detection System (Roche) in 384-well format. Sypro-Orange dye (Life Technologies) was used to monitor fluorescence, with filters for fluorescence excitation at 465 nm and for fluorescence emission at 610 nm. […] Each compound was tested in duplicates. The melting temperature (Tm) for each sample was deduced by the ThermoQ Analytical software (HMRI) from the first derivative of the corresponding denaturation curve generated by the LightCycler 480 software. […] All DSF-based analyses were performed using freshly purified protein.

[3] = HeLa cells, 16 h treatment, read-out: EC50 for enhancement of TLX transcriptional repression

Chain of ERβ LBD (Q92731 261-530): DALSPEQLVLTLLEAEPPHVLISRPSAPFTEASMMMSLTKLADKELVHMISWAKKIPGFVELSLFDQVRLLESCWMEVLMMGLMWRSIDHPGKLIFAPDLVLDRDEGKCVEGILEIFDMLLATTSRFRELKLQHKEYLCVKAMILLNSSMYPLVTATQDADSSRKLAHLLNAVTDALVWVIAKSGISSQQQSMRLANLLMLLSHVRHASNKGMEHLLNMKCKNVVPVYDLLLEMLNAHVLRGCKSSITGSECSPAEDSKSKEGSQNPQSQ

## CC(C)c1c(CN(C)C(C)Cc2ccccc2)n(C)n(-c2ccccc2)c1=O (stereo not drawn) [ccrp1, Famprofazone]
ERβ LBD
  melting temperature shift of ERβ LBD: Neither compound demonstrates any significant effect on the melting temperatures
TLX LBD [1]; [3]
  EC50: 9200 ± 1000 nM
Human RXRα LBD
  effect on RXRα luciferase activity: No effect on luciferase activity was detected
GAL4 DBD vector
  effect on luciferase activities in absence of TLX: do not affect the luciferase activities
Human LXRβ LBD
  melting temperature shift of LXRβ LBD: Neither compound demonstrates any significant effect on the melting temperatures
TLX LBD [2]
  melting temperature (Tm) of TLX LBD in presence of compound: 53.04±0.3 °C

## Cc1cc(C(=O)N2CCN(C(c3ccccc3)c3ccccc3)CC2)nn1C [ccrp2, 1-(1,5-dimethylpyrazole-3-carbonyl)-4-(diphenylmethyl)piperazine]
ERβ LBD
  melting temperature shift of ERβ LBD: Neither compound demonstrates any significant effect on the melting temperatures
TLX LBD [1]
  EC50: 1000 ± 300 nM
Human RXRα LBD
  effect on RXRα luciferase activity: No effect on luciferase activity was detected
GAL4 DBD vector
  effect on luciferase activities in absence of TLX: do not affect the luciferase activities
Human LXRβ LBD
  melting temperature shift of LXRβ LBD: Neither compound demonstrates any significant effect on the melting temperatures
TLX LBD [2]
  melting temperature (Tm) of TLX LBD in presence of compound: 52.49±1.1 °C

## CC(=O)[C@H]1CC[C@H]2[C@@H]3C=CC4=CC(=O)CC[C@@]4(C)[C@@H]3CC[C@]12C [ccrp3, Dydrogesterone]
ERβ LBD
  melting temperature shift of ERβ LBD: Neither compound demonstrates any significant effect on the melting temperatures
TLX LBD [1]; [3]
  EC50: 250 ± 100 nM
Human RXRα LBD
  effect on RXRα luciferase activity: No effect on luciferase activity was detected
GAL4 DBD vector
  effect on luciferase activities in absence of TLX: do not affect the luciferase activities
Human LXRβ LBD
  melting temperature shift of LXRβ LBD: Neither compound demonstrates any significant effect on the melting temperatures
TLX LBD [2]
  melting temperature (Tm) of TLX LBD in presence of compound: 55.78±0.3 °C
